Results taken from patent US20210330611A1, “THERAPY FOR NEUROLOGICAL DISEASES/DISORDERS” (priority 2020, published 2021).

What was measured:
[1] = test system: MOG35-55 EAE; test: Immunohistochemistry of spinal cord lesions in MOG35-55 EAE mice; format: in vivo, mouse
[2] = test system: 2D2 T cells; test: Antigen-specific T-cell proliferation (BrdU, 2D2 T cells with MOG35-55-pulsed BMDMs); format: cell-based, mouse; details: 5, 0.5 or 0.05 μM, FIG. 14G, H
Method: T-cell proliferation assay. For antigen-specific T cell proliferation, näive CD4+ T cells were magnetically sorted from the TCR-transgenic 2D2 mice using naïve CD4+ T cell isolation kits (Miltenyi Biotec). […]. For non-antigen-specific T cell proliferation, naïve CD4^+ T cells were treated with acivicin and stimulated with mouse T-activator CD3/CD28 Dynabeads (Thermo Fisher Scientific) for 3 d. Cells were then fixed, permeabilized, and stained with FITC-conjugated anti-BrdU (BrdU Flow Kits, BD Biosciences).

[3] = test system: BMDMs; format: cell-based, mouse; details: 24 h, FIG. 12
Method: FIGS. 12A-E. Effects of acivicin on microglia, macrophage and whole blood cell numbers. a, Representative images showing morphology and density of primary microglia treated with vehicle or acivicin for 48 h stained with nuclei marker Hoechst or CellMask Red Whole Cell Stain. Quantification of the total number of microglia. Data are representative of one experiment with technical replicates (open symbols). b, Representative confocal images showing morphology and density of control- and acivicin-treated BMDMs treated for 24 h. Scale bar, 100 μm. Insets depict digitally zoomed in areas of regions of interest. Quantification of the total number of BMDMs in the field of view. […] Cell viability of single CD45^+ cells was assessed by Sytox blue live/dead nuclei stain. Quantification of percent cell viability of CD45^+ BMDMs treated with acivicin or left untreated. Data are from 2 independent experiments with n=4 mice per group (mean±s.d.). d, Quantification of complete blood count analysis of white blood cells (WBCs), red blood cells (RBC), platelets (PLT) (left) and composition of WBCs (right) of blood samples from healthy mice treated with saline or acivicin for 10 days. […] Quantification of total microglia cell numbers in healthy mice treated with acivicin or saline. […]

[4] = test system: neuronal viability; details: similar concentration range; cited from earlier work
[5] = test system: MOG35-55 EAE; test: Active MOG35-55 EAE, clinical scores; format: in vivo, mouse; details: mouse, in vivo, 5 mg/kg
[6] = test system: mouse BMDMs; test: ROS production (DHE) in fibrin-stimulated mouse BMDMs; format: cell-based; details: fibrin 24 h, 5 μM inhibitor, FIG. 6b
Method: Bone marrow—derived macrophage cultures. […]. In brief, bone-marrow cells were isolated from tibia and femur of C57BL/6 mice, Ggt1^+/+ mice or Ggt1^dwg/dwg mice and cultured in RPMI-1640 medium supplemented with 10% FBS, 1% penicillin-streptomycin (Corning), and 10 ng/ml murine M-CSF (14-8983-80, Thermo Fisher Scientific). On days 6-7, adherent BMDMs were harvested by adding PBS with 5 mM EDTA to the plates and used for assays.
Human macrophage cultures. Human peripheral blood mononuclear cells (PBMCs) were purchased from AllCells, LLC (Alameda, Calif.). To differentiate PBMC into monocyte-derived macrophages, 2×10^6 PBMC/mL were plated in RPMI-1640 media supplemented with 10% FBS, 1% penicillin-streptomycin (Corning), and 50 ng/ml human M-CSF (300-25, Peprotech) in tissue-culture treated dishes (Corning). After 24 h, non-adherent cells were removed, and adherent cells were cultivated for 7-8 additional days at 37° C. in 5% CO2 to promote their full differentiation into macrophages. Oxidant detection with DHE. Intracellular concentrations of ROS were measured using dihydroethidium (DHE) as described (9). […] The DHE fluorescence was detected at an excitation/emission wavelength of 518 nm/605 nm using a SpectraMax M5 microplate reader (Molecular Devices) with SoftMax Pro 5.2 software (Phoenix Technologies Ltd.).

[7] = test system: CD4+ T cells; test: Flow cytometry of splenocyte T cells from MOG35-55 EAE mice; format: in vivo, mouse; details: splenocytes, 10 days treatment, FIG. 14C-F
Method: Flow cytometry. Cells were incubated with anti-mouse CD16/CD32 antibody (2.4G2) diluted in PBS with 2% FBS, and 2 mM EDTA at 4° C. for 15 min to block Fc receptor binding. Cells were stained with fluorescent-conjugated antibodies: CD3 (17A2), CD4 (GK1.5), CD8 (53-6.7), CD62L (MEL-14), CD44 (1M7), CD25 (3C7), CD11b (M1/70), CD45 (30-F11), and MHC II (M5/114.15.2). For surface labeling of GGT1, unconjugated mouse monoclonal anti-GGT1 (1:100; ab55138, Abcam) was incubated with surface markers for 1 hr at 4° C. Then FITC conjugated species-specific secondary antibody (1:100) was added for 1 hr at 4° C. For intracellular staining of IFN-γ and IL-17A, T cells were stimulated for 4 hr with Cell Activation Cocktail (BioLegend). Cells were then fixed with Cytofix/Cytoperm solution (BD Bioscience) and stained with antibodies to IL-17A (TC11-18H10.1), or IFN-γ (XMG1.2). Foxp3 (FJK-16S) staining was performed according to the manufacturer's protocol (eBioscience). Cells were analyzed by flow cytometry on an LSR II (BD Biosciences) with FlowJo software (Tree Star Inc.). Antibodies were purchased from BioLegend, BD Biosciences, or eBioscience.

## N[C@H](C(=O)O)[C@@H]1CC(Cl)=NO1 [Acivicin, (2S)-2-amino-2-[(5S)-3-chloro-4,5-dihydro-1,2-oxazol-5-yl] acetic acid]
[1]; FIG. 7i
  demyelination (MBP): markedly reduced
  neuronal damage (SMI-32): markedly reduced
[1]; FIG. 7j
  microglia activation (CX3CR1+ cells): markedly reduced
  monocyte/macrophage infiltration (CCR2+ cells): markedly reduced
[1]; spinal cord, peak disease, FIG. 7f
  4-hydroxynonenal (4-HNE) immunostaining: markedly reduced
[2]
  encephalitogenic T cell proliferation (BrdU) with APCs: suppressed
[3]
  macrophage cell number in vitro: did not affect
[4]
  neuronal viability: does not affect
[5]
  disease onset and severity: delayed
[6]
  ROS generation (DHE) in mouse macrophages: decreased
[7]
  IFN-γ-producing T cells: selectively decreased
  IL-17-producing T cells: selectively decreased
